45 molecules from ChEMBL document CHEMBL3046506 (2006) can be followed below.

Experiment [1] concerns Pyricularia oryzae. Nature of the experiment: Antifungal activity against wild type Magnaporthe oryzae Hoku-1 in rice seedlings assessed as preventive value of rice blast at 5 ug/ml foliar spray at 26 degC by pot test. It counts as functional.
For experiment [2], the system named is Pyricularia oryzae. Kind of experiment: Antifungal activity against wild type Magnaporthe oryzae Hoku-1 in rice seedlings assessed as preventive value of rice blast at 5 ug/ml systemic application at 22 to 30 degC by pot test. It counts as functional.

`CCC1(C(=O)NC(C)c2cc(Cl)c(Cl)s2)C(C)C1(Cl)Cl` (stereo not given): the Activity with Pyricularia oryzae [1] is listed as 40%; with Pyricularia oryzae [2] it was “<=40%”.
Regarding `CCC1(C(=O)NCCc2csc(Br)c2)C(C)C1(Cl)Cl` (stereo not given), the Activity in the experiment with Pyricularia oryzae [1] is given as 40%; in the experiment with Pyricularia oryzae [2], below 40%.
For `CCC1(C(=O)NCC(C)c2ccc(Cl)cc2)C(C)C1(Cl)Cl` (stereo not given) the same measures were 40% and 40%.
Consider `CCC1(C(=O)NCCc2ccc(Cl)cc2)C(C)C1(Cl)Cl` (stereo not given), for which the Activity in the experiment with Pyricularia oryzae [1] and with Pyricularia oryzae [2] was 40% in each case.
As for `CCC1(C(=O)Nc2ccc(Cl)cc2)C(C)C1(Cl)Cl` (stereo not given), the Activity in the experiment on Pyricularia oryzae [1] and with Pyricularia oryzae [2] was below 40% throughout.
`CCC1(C(=O)NC(C)Cc2ccc(Cl)cc2)C(C)C1(Cl)Cl` (stereo not given): the Activity in the experiment with Pyricularia oryzae [1] and in the experiment on Pyricularia oryzae [2] was below 40% each time.
For `CC(C)C1(C(=O)NCCc2csc(Cl)c2)CC1(Cl)Cl` (stereo not given), the Activity in the experiment on Pyricularia oryzae [1] and in the experiment with Pyricularia oryzae [2] was 40% in each case.
As to `CCC1(C(=O)NC(C)c2csc(Cl)c2)C(C)C1(Cl)Cl` (stereo not given), the results for the Activity entry with Pyricularia oryzae [1] and in the experiment on Pyricularia oryzae [2] were “<=40%” and 40%, respectively.
`CCC1(C(=O)NCCc2cc(Cl)cs2)C(C)C1(Cl)Cl` (stereo not given): the Activity in the experiment with Pyricularia oryzae [1] and with Pyricularia oryzae [2] was 40% throughout.
`CCC1(C(=O)NC(C)C2CCCCC2)C(C)C1(Cl)Cl` (stereo not given): the Activity with Pyricularia oryzae [1] and in the experiment with Pyricularia oryzae [2] was below 40% in each case.
Take `CCC1(C(=O)NCc2ccc(Cl)cc2)C(C)C1(Cl)Cl` (stereo not given): the Activity result is reported as “<=40%” in the experiment with Pyricularia oryzae [1] and 40% in the experiment on Pyricularia oryzae [2].
`CCC1(C(=O)NCCc2ccc(Cl)cc2Cl)C(C)C1(Cl)Cl` (stereo not given): the Activity in the experiment with Pyricularia oryzae [1] and with Pyricularia oryzae [2] was 40% each time.
Take `CCC1(C(=O)NCCc2csc(Cl)c2)C(C)C1(Cl)Cl` (stereo not given): the Activity in the experiment on Pyricularia oryzae [1] and in the experiment on Pyricularia oryzae [2] was 65% in each case.
Consider `CC1(C)C(Cl)(Cl)C1(C)C(=O)NCCc1csc(Cl)c1` (stereo not given), for which the Activity in the experiment on Pyricularia oryzae [1] and with Pyricularia oryzae [2] was 40% in each case.
Consider `CCC1(C(=O)NCCc2cc(Cl)sc2Cl)C(C)C1(Cl)Cl` (stereo not given), for which the Activity is 40% in the experiment with Pyricularia oryzae [1] and below 40% in the experiment with Pyricularia oryzae [2].
For the molecule `CCC1(C(=O)NCCc2ccccc2Cl)C(C)C1(Cl)Cl` (stereo not given), the Activity in the experiment on Pyricularia oryzae [1] and with Pyricularia oryzae [2] was 40% in each case.
For the molecule `CCC1(C(=O)NCCc2ccc(F)cc2F)C(C)C1(Cl)Cl` (stereo not given), the Activity with Pyricularia oryzae [1] and in the experiment on Pyricularia oryzae [2] was 40% each time.
`CCC1(C(=O)NCCC(F)(F)F)C(C)C1(Cl)Cl` (stereo not given): the Activity in the experiment on Pyricularia oryzae [1] and in the experiment on Pyricularia oryzae [2] was below 40% in each case.
For the molecule `CC(C)(C)C(Br)C(=O)NCCc1csc(Cl)c1` (stereo not given), the Activity in the experiment with Pyricularia oryzae [1] and in the experiment on Pyricularia oryzae [2] was 40% throughout.
Regarding `CCC1(C(=O)NCCc2cnc(Cl)s2)C(C)C1(Cl)Cl` (stereo not given), the Activity in the experiment on Pyricularia oryzae [1] and with Pyricularia oryzae [2] was 40% throughout.
For `CCC1(C(=O)NCCc2ccc(Br)cc2)C(C)C1(Cl)Cl` (stereo not given), the Activity entry was “<=40%” in the experiment on Pyricularia oryzae [1] and below 40% in the experiment on Pyricularia oryzae [2].
Regarding `CC1C(Cl)(Cl)C1(C)C(=O)NCCc1csc(Cl)c1` (stereo not given), the Activity in the experiment with Pyricularia oryzae [1] and in the experiment with Pyricularia oryzae [2] was 40% throughout.
With `CC(C)(C)C(C#N)C(=O)NCCc1csc(Cl)c1` (stereo not given), the results for the Activity in the experiment with Pyricularia oryzae [1] and in the experiment on Pyricularia oryzae [2] were 40% and 65%, respectively.
For `CCC1(C(=O)NCCc2ccc(C(F)(F)F)cc2)C(C)C1(Cl)Cl` (stereo not given) the same measures were 40% and 40%.
For `CCC1(C(=O)NC(C)C2CCCC2)C(C)C1(Cl)Cl` (stereo not given) the same measures were below 40% and 40%.
`CCC1(C(=O)NC(C)C)C(C)C1(Cl)Cl` (stereo not given): the Activity with Pyricularia oryzae [1] and in the experiment with Pyricularia oryzae [2] was below 40% in each case.
`CCC1(C(=O)NCCc2ccsc2)C(C)C1(Cl)Cl` (stereo not given): the Activity is 40% in the experiment on Pyricularia oryzae [1] and “<=40%” in the experiment on Pyricularia oryzae [2].
With `CCC1(C(=O)NCCc2cccc(Cl)c2)C(C)C1(Cl)Cl` (stereo not given), the Activity in the experiment with Pyricularia oryzae [1] and in the experiment with Pyricularia oryzae [2] was 40% throughout.
For `CCC1(C(=O)NC(C)c2ccc(Cl)s2)C(C)C1(Cl)Cl` (stereo not given), the Activity result in the experiment on Pyricularia oryzae [1] and with Pyricularia oryzae [2] was “<=40%” each time.
For `CCC1(C(=O)NCCc2ccc(C)cc2)C(C)C1(Cl)Cl` (stereo not given), the Activity in the experiment on Pyricularia oryzae [1] and with Pyricularia oryzae [2] was below 40% each time.
As to `CCC(NC(=O)C1(CC)C(C)C1(Cl)Cl)c1ccc(Cl)cc1` (stereo not given), the results for the Activity entry with Pyricularia oryzae [1] and in the experiment with Pyricularia oryzae [2] were “<=40%” and below 40%, respectively.
Take `CCCC1(C(=O)NCCc2csc(Cl)c2)CC1(Cl)Cl` (stereo not given): the Activity in the experiment on Pyricularia oryzae [1] and in the experiment with Pyricularia oryzae [2] was below 40% each time.
`CC1(C)C(C(=O)NCCc2csc(Cl)c2)C1(Cl)Cl` (stereo not given): the Activity with Pyricularia oryzae [1] and in the experiment on Pyricularia oryzae [2] was below 40% throughout.
With `CCC(C)NC(=O)C1(CC)C(C)C1(Cl)Cl` (stereo not given), the Activity in the experiment with Pyricularia oryzae [1] and with Pyricularia oryzae [2] was below 40% each time.
In the case of `CCC1(C(=O)NCCCc2ccc(Cl)cc2)C(C)C1(Cl)Cl` (stereo not given), the Activity in the experiment on Pyricularia oryzae [1] and with Pyricularia oryzae [2] was 40% throughout.
In the case of `CC[C@@]1(C(=O)N[C@H](C)c2ccc(Cl)cc2)[C@@H](C)C1(Cl)Cl` (mixture of isomers) [CARPROPAMIDE], the Activity in the experiment on Pyricularia oryzae [1] and in the experiment on Pyricularia oryzae [2] was above 90% each time.
With `CCC1(C(=O)NCCc2cc(Cl)c(Cl)s2)C(C)C1(Cl)Cl` (stereo not given), the values for the Activity entry in the experiment with Pyricularia oryzae [1] and in the experiment with Pyricularia oryzae [2] were “<=40%” and 40%, respectively.
Take `CCC1(C(=O)NCCc2csc(Cl)n2)C(C)C1(Cl)Cl` (stereo not given): the Activity in the experiment on Pyricularia oryzae [1] and in the experiment with Pyricularia oryzae [2] was 40% each time.
Turning to `CCC1(C(=O)NCCc2ccc(F)cc2)C(C)C1(Cl)Cl` (stereo not given), the Activity with Pyricularia oryzae [1] and in the experiment on Pyricularia oryzae [2] was 40% in each case.
Turning to `CCC1(C(=O)NC(C)C2CCCCCC2)C(C)C1(Cl)Cl` (stereo not given), the Activity with Pyricularia oryzae [1] and with Pyricularia oryzae [2] was below 40% in each case.
As to `CCC1(C(=O)NCCc2ccc(Cl)s2)C(C)C1(Cl)Cl` (stereo not given), the Activity in the experiment with Pyricularia oryzae [1] and with Pyricularia oryzae [2] was 40% throughout.
As to `CCC1(C(=O)NC(C)c2cc(Cl)cs2)C(C)C1(Cl)Cl` (stereo not given), the Activity entry with Pyricularia oryzae [1] and in the experiment with Pyricularia oryzae [2] was “<=40%” throughout.
For `CCC1(C(=O)NCCc2ccc(Cl)c(Cl)c2)C(C)C1(Cl)Cl` (stereo not given), the Activity in the experiment on Pyricularia oryzae [1] and in the experiment on Pyricularia oryzae [2] was 40% throughout.
As for `CCC1(C(=O)NC(C)C2CCC2)C(C)C1(Cl)Cl` (stereo not given), the Activity in the experiment on Pyricularia oryzae [1] and with Pyricularia oryzae [2] was below 40% each time.
Turning to `CC(C)(C)C(Cl)C(=O)NCCc1csc(Cl)c1` (stereo not given), the Activity in the experiment with Pyricularia oryzae [1] and with Pyricularia oryzae [2] was 40% throughout.
